Assay results taken from patent US9057090B2, “Method of identifying an agent for inhibiting odor of pyrazine derivatives” (Kao Corporation, priority 2012, dated 2015).

Test system: not listed separately
Assay: Sensory test of reduction of the odor of 2,6-dimethylpyrazine in dough
Conditions: flavoring agent 0.5 μL added to dough 0.5 g containing 1% 2,6-dimethylpyrazine; four panelists; rating 1 to 5; FIG. 3
Method: A flavoring agent (0.5 μL) was added to dough (0.5 g) containing 2,6-dimethylpyrazine (1%, and the odor thereof was evaluated by comparing the strength of odor of 2,6-dimethylpyrazine in dough not applied with flavor by the flavoring agent. The sensory evaluation test was performed by four panelists. In the evaluation, a case where a strong odor of 2,6-dimethylpyrazine was smelled was rated as 1, and a case where the odor of 2,6-dimethylpyrazine was not smelled at all was rated as 5.

| Molecule | odor of 2,6-dimethylpyrazine in sensory test |
| --- | --- |
| CCC(O)COC1CCCCC1C(C)(C)C (centres unmarked) [Amber Core, 1-(2-tert-butylcyclohexyloxy)-2-butanol] | inhibited |
| C=CCCC(=O)C1=CCCC(C)(C)C1 [Dynascone, 1-(5,5-dimethyl-1-cyclohexen-1-yl)-4-penten-1-one] | inhibited |
| CC(=CCC1CC=C(C)C1(C)C)CO (centres unmarked) [Sandalmysore Core, 2-methyl-4-(2,2,3-trimethyl-3-cyclopenten-1-yl)-2-buten-1-ol] | inhibited |
| CC=CC(=O)C1=C(C)C=CCC1(C)C [damascenone, 1-(2,6,6-trimethyl-1,3-cyclohexadien-1-yl)-2-buten-1-one] | inhibited |
| CC(C=O)Cc1ccc2c(c1)OCO2 (stereo not drawn) [helional, α-methyl-3,4-methylenedioxyhydrocinnamic aldehyde] | inhibited |
| CC(C=O)Cc1ccc(C(C)(C)C)cc1 (stereo not drawn) [lilial, α-methyl-β-(p-tert-butylphenyl)-propionaldehyde] | inhibited |
| CC1=CC(C)C(C=O)CC1 (centres unmarked) [triplal, 2,4-dimethyl-3-cyclohexene-1-carboxyaldehyde] | inhibited |
| CCC=C(C)C(O)CCCCC (centres unmarked) [undecavertol, 4-methyl-3-decen-5-ol] | inhibited |
| CCCCCCC(C=O)=Cc1ccccc1 [α-hexylcinnamic aldehyde] | inhibited |
| CC(=O)/C(C)=C/C1C(C)=CCCC1(C)C (stereo not drawn) [α-isomethyl ionone] | inhibited |
| CC(=O)C=CC1=C(C)CCCC1(C)C [β-ionone, 4-(2,6,6-trimethyl-1-cyclohexen-1-yl)-3-buten-2-one] | inhibited |
| CC(=O)c1ccc2ccccc2c1 [β-methyl naphthyl ketone] | inhibited |
| CCCCCCCC1CCC(=O)O1 (centres unmarked) [γ-undecalactone] | inhibited |
| CC1C/C=C/CCCCCCCCCC(=O)C1 (centres unmarked) [δ-muscenone, (5E)-3-methylcyclopenta-5-decen-1-one] | inhibited |
| ethyl-(3aα,4α,7α,3aα)-octahydro-4,7-methano-3aH-indene-3a-carboxylate [Fruitate] | inhibited |

Biological target: T1, olfactory receptor OR5K1 (Homo sapiens, UniProt Q8NHB7)
T1 construct: expressed in transfected cells; host or cells: HEK293
T1 sequence (Q8NHB7 1-308): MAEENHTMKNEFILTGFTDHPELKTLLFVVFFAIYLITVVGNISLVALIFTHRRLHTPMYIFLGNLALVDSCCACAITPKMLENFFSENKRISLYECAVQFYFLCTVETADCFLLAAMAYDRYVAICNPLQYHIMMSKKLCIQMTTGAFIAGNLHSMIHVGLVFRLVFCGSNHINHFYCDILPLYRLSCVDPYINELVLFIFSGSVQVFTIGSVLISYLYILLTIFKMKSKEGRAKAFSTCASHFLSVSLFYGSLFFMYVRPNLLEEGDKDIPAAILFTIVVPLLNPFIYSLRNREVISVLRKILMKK
Assay: Luciferase reporter gene assay: response of olfactory receptor to pyrazine derivatives
Assay type: cell-based
Conditions: 0, 3, 10, 30, 100, 300 and 1000 μM; HEK293 cells expressing OR5K1 with RTP1S variant; FIG. 2
Method: HEK293 cells expressing 373 types of human olfactory receptors were produced. A reaction solution having a composition shown in Table 1 was prepared and left to stand in a clean bench for 15 min and then was dispensed in each well of a 96-well plate (Becton, Dickinson and Company). Subsequently, HEK293 cells (100 μL, 3×10^5 cells/cm^2) were seeded in each well and cultured in an incubator at 37° C. and 5% CO2 for 24 hr.
An olfactory receptor expressed in HEK293 cells couples with endogenous Gas in the cells to activate adenylate cyclase and thereby increases the amount of intracellular cAMP. In this study, the response of a pyrazine derivative was measured by luciferase reporter gene assay which monitors an increase in the amount of intracellular cAMP as the luminescence value derived from a firefly luciferase gene (fluc2P-CRE-hygro). A Renilla luciferase gene was fused downstream of a CMV promoter (hRluc-CMV) and was also introduced to HEK293 cells as an internal standard to correct errors in transgenic efficiency and number of cells.
The culture medium was removed from the culture produced in the above 3), and 75 μL of a solution prepared with a CD293 medium (Invitrogen Inc.) so as to contain a pyrazine derivative (1 mM 2,6-dimethylpyrazine) was added thereto. The cells were cultured in a CO2 incubator for 2.5 hr to sufficiently express the luciferase gene in the cells. The luciferase activity was measured with a Dual-Glo™ luciferase assay system (Promega Corporation) in accordance with the operating manual of the system. The fold increases were calculated by dividing the luminescence value derived from firefly luciferase induced by stimulation with a pyrazine derivative at each concentration by the luminescence value in cells not stimulated with the pyrazine derivative and were used as an index of response strength.
Olfactory receptor OR5K1 (SEQ ID NO: 2) was expressed in HEK293 cells together with an RTP1S variant (SEQ ID NO: 4) by the same procedure as in Example 1, and the dependency of the response on the concentration (0, 3, 10, 30, 100, 300, and 1000 μM) of various pyrazine compounds was investigated. The pyrazine compounds used in this Example were pyrazine and pyrazine derivatives selected from the group consisting of 2-methylpyrazine, 2,3-dimethylpyrazine, 2,5-dimethylpyrazine, 2,3,5-trimethylpyrazine, 2,3,5,6-tetramethylpyrazine and 2-ethylpyrazine.

| Molecule | response of OR5K1, dependency on concentration |
| --- | --- |
| Cc1nc(C)c(C)nc1C [2,3,5,6-tetramethylpyrazine] | responded in a dose-dependent manner |
| Cc1cnc(C)c(C)n1 [2,3,5-trimethylpyrazine] | responded in a dose-dependent manner |
| Cc1nccnc1C [2,3-dimethylpyrazine] | responded in a dose-dependent manner |
| Cc1cnc(C)cn1 [2,5-dimethylpyrazine] | responded in a dose-dependent manner |

Biological target: T1, olfactory receptor OR5K1
Assay: Antagonist assay: inhibition of OR5K1 response to 2,6-dimethylpyrazine (luciferase reporter)
Assay type: cell-based
Conditions: HEK293 cells expressing OR5K1; 2,6-dimethylpyrazine 1 mM + test substance 300 μM (cytotoxic flavoring agents re-evaluated at 333 μM + 100 μM); read-out: Inhibition rate (receptor response-inhibiting rate)
Method: The receptor response-inhibiting rate of a test substance was calculated as follows. The receptor activity (X−Y) by stimulation with 2,6-dimethylpyrazine alone was determined by subtracting the luminescence value (Y) in cells to which the receptor was introduced but were not stimulated with 2,6-dimethylpyrazine from the luminescence value (X) derived from firefly luciferase induced by stimulation with 2,6-dimethylpyrazine alone. Similarly, the receptor activity (Z−Y) in the presence of a test substance was determined by subtracting the luminescence value (Y) in cells not stimulated with 2,6-dimethylpyrazine from the luminescence value (Z) stimulated with a mixture of 2,6-dimethylpyrazine and the test substance. The reduction rate of the receptor activity (Z−Y) in the presence of a test substance to the receptor activity (X−Y) by stimulation with 2,6-dimethylpyrazine alone was calculated by the following computation expression: Inhibition rate (%)={1−(Z−Y)/(X−Y)}×100, to determine the receptor response-inhibiting rate of the test substance. In the measurement, multiple independent experiments were performed in duplicate, and the average of each experiment was used.

| Molecule | inhibition at 300 µM [%] |
| --- | --- |
| CCC(O)COC1CCCCC1C(C)(C)C (centres unmarked) [Amber Core, 1-(2-tert-butylcyclohexyloxy)-2-butanol] | ≥ 75 |
| CC1(C)CCCC2(C)C1CCC1(C)OCCC12 (centres unmarked) [Ambrotech, dodecahydro-3a,6,6,9a-tetramethyl-naphtho[2,1-b]furan] | ≥ 50 |
| C=CCCC(=O)C1=CCCC(C)(C)C1 [Dynascone, 1-(5,5-dimethyl-1-cyclohexen-1-yl)-4-penten-1-one] | ≥ 40 |
| CC(=O)C1(C)CC2=C(CCCC2(C)C)CC1C (centres unmarked) [Iso E Super, 7-acetyl-1,2,3,4,5,6,7,8-octahydro-1,1,6,7-tetramethyl-naphthalene] | ≥ 75 |
| CC(C=O)C1CCCCC1 (centres unmarked) [Pollenal II, 2-cyclohexylpropanal] | ≥ 50 |
| CC(=CCC1CC=C(C)C1(C)C)CO (centres unmarked) [Sandalmysore Core, 2-methyl-4-(2,2,3-trimethyl-3-cyclopenten-1-yl)-2-buten-1-ol] | ≥ 50 |
| CC(=O)c1cc2c(cc1C)C(C)(C)C(C)CC2(C)C (centres unmarked) [Tonalid, 1-(5,6,7,8-tetrahydro-3,5,5,6,8,8-hexamethyl-2-naphthalenyl)-ethanone] | ≥ 75 |
| CC(=O)C1=C(C)C2CC3(C1)C(C)CCC3C2(C)C (centres unmarked) [acetyl cedrene, 1-(2,3,4,7,8,8a-hexahydro-3,6,8,8-tetramethyl-1H-3a,7-methanoazulen-5-yl)-ethanone] | ≥ 50 |
| CCC(=CCC1CC=C(C)C1(C)C)CO (centres unmarked) [bacdanol, 2-ethyl-4-(2,2,3-trimethyl-3-cyclopenten-1-yl)-2-buten-1-ol] | ≥ 75 |
| CC=Cc1ccc(OCc2ccccc2)c(OC)c1 [benzyl isoeugenol, 2-methoxy-1-(phenylmethoxy)-4-(1-propenyl)-benzene] | ≥ 50 |
| CC(=O)O[C@]1(C)CC[C@@]23C[C@@H]1C(C)(C)[C@@H]2CC[C@H]3C [cedryl acetate] | ≥ 50 |
| CC(=O)c1cc(C(C)(C)C)cc2c1C=CC2(C)C [celestolide, 6-tert-butyl-1,1-dimethylinden-4-yl methyl ketone] | ≥ 40 |
| O=CC=Cc1ccccc1 [cinnamaldehyde] | ≥ 50 |
| CC(C)=CCCC(C)=CC=O [citral, 3,7-dimethyl-2,6-octadienal] | ≥ 75 |
| CC(C)=CCCC(C)CC=O (centres unmarked) [citronellal, 3,7-dimethyl-6-octenal] | ≥ 50 |
| CC(C)=CCCC(C)CCOCC=O (centres unmarked) [citronellyloxyacetaldehyde, 6,10-dimethyl-3-oxa-9-undecenal] | ≥ 40 |

| Molecule | inhibition at 300 µM [%] |
| --- | --- |
| CC=CC(=O)C1=C(C)C=CCC1(C)C [damascenone, 1-(2,6,6-trimethyl-1,3-cyclohexadien-1-yl)-2-buten-1-one] | ≥ 40 |
| CCCCCC1=C(C)CCC1=O [dihydrojasmon, 2-pentyl-3-methyl-2-cyclopenten-1-one] | ≥ 40 |
| O=C1CCCCCCCCCCCC(=O)OCCO1 [ethylene brassylate, 1,4-dioxacyclo-heptadecane-5,17-dione] | ≥ 40 |
| C=CCc1ccc(O)c(OC)c1 [eugenol, 1-allyl-3-methoxy-4-hydroxybenzene] | ≥ 40 |
| CC(C)=CCC/C(C)=C/CO [geraniol, (E)-3,7-dimethyl-2,6-octadien-1-ol] | ≥ 40 |
| CCCCCCOC(=O)c1ccccc1O [hexyl salicylate] | ≥ 40 |
| CC(C=O)c1ccccc1 (centres unmarked) [hydratropic aldehyde, 2-phenyl-propionaldehyde] | ≥ 50 |
| C=C(OCC)C1C(C)(C)CC(=O)CC1(C)C [kephalis, 4-(1-ethoxyvinyl)-3,3,5,5-tetramethyl cyclohexanone] | ≥ 50 |
| CC(C=O)Cc1ccc(C(C)(C)C)cc1 (stereo not drawn) [lilial, α-methyl-β-(p-tert-butylphenyl)-propionaldehyde] | ≥ 50 |
| CC(C)[C@H]1CC[C@@H](CO)CC1 [mayol, cis-4-isopropyl-cyclohexylmethanol] | ≥ 40 |
| CC(=O)c1c(C)c([N+](=O)[O-])c(C(C)(C)C)c([N+](=O)[O-])c1C [musk ketone, 4-tert-butyl-2,6-dimethyl-3,5-dinitro-acetophenone] | ≥ 40 |
| O=C(OCCc1ccccc1)c1ccccc1O [phenylethyl salicylate] | ≥ 75 |
| CC(C)CCCC(C)CCO (centres unmarked) [tetrahydrogeraniol, 3,7-dimethyl-1-octanol] | ≥ 50 |
| Cc1ccc(C(C)C)c(O)c1 [thymol, 5-methyl-2-(1-methylethyl)-phenol] | ≥ 75 |
| CCC=C(C)C(O)CCCCC (centres unmarked) [undecavertol, 4-methyl-3-decen-5-ol] | ≥ 75 |
